Reference: ChEMBL document CHEMBL4354782, “Quinolone antibiotics” (Medchemcomm, 2019)

Assays:
[1] = Toxicity in human assessed as thrombocytopenia
[2] = Haemolytic activity in human; format: ADME, organism-based; conditions: in vivo, read-out: Activity
[3] = Toxicity in human assessed as renal failure

CC1CN(c2cc3c(cc2F)c(=O)c(C(=O)O)cn3-c2ccc(F)cc2F)CCN1 (stereo not drawn) [TEMAFLOXACIN]
0.02%: Activity [1] | hemolysis [2] | Activity [3]
